In ChEMBL document CHEMBL5214912, “Design, synthesis, and SAR study of novel 4,5-dihydropyrazole-Thiazole derivatives with anti-inflammatory activities for the treatment of sepsis” (Eur J Med Chem, 2021):
Active and inactive are the calls of the source. The rule behind the calls is not given here.

What was measured:
[1] = system: RAW264.7; assay: Inhibition of LPS-induced NO production in mouse RAW264.7 cells at 1 uM pre-incubated for 1 hrs followed by LPS stimulation and measured after 24 hrs; type: functional, cell-based; conditions: time 25.0 hrs
[2] = Toxicity in LPS-induced sepsis in C57BL/6J mouse model assessed as decrease in ratio of spleen weight to body weight at 14 mg/kg,IG administrated for 72 hrs followed by LPS stimulation and measured after 12 hrs; type: organism-based; conditions: in vivo, po, 84 h
[3] = system: RAW264.7; assay: Antiinflammatory activity in mouse RAW264.7 cells assessed as reduction in LPS-induced TNF-alpha mRNA expression at 2.5 to 10 uM pre-incubated for 1 hrs followed by LPS stimulation and measured after 24 hrs by qRT-PCR assay; type: functional, cell-based; conditions: dose 2.5-10 µM, time 25.0 hrs, DDE = dose-dependent effect
[4] = system: RAW264.7; assay: Antiinflammatory activity in mouse RAW264.7 cells assessed as reduction in LPS-induced p38 phosphorylation at 2.5 to 10 uM pre-incubated for 1 hrs followed by LPS stimulation and measured after 24 hrs by western blotting method; type: functional, cell-based; conditions: dose 2.5-10 µM, time 25.0 hrs, DDE = dose-dependent effect
[5] = system: RAW264.7; assay: Antiinflammatory activity in mouse RAW264.7 cells assessed as reduction in LPS-induced IL-1beta mRNA expression at 2.5 to 10 uM pre-incubated for 1 hrs followed by LPS stimulation and measured after 24 hrs by qRT-PCR assay; type: functional, cell-based; conditions: dose 2.5-10 µM, time 25.0 hrs, DDE = dose-dependent effect
[6] = system: RAW264.7; assay: Inhibition of LPS-induced NO production in mouse RAW264.7 cells at 10 uM pre-incubated for 1 hrs followed by LPS stimulation and measured after 24 hrs; type: functional, cell-based; conditions: time 25.0 hrs
[7] = system: Mus musculus; assay: Antiinflammatory activity in LPS-induced sepsis in C57BL/6J mouse model assessed as reduction in serum creatinine level at 7 mg/kg,IG administrated for 72 hrs followed by LPS stimulation and measured after 12 hrs; type: functional, organism-based; conditions: time 84.0 hrs
[8] = system: RAW264.7; assay: Antiinflammatory activity in mouse RAW264.7 cells assessed as reduction in LPS-induced COX-2 protein expression at 2.5 to 10 uM pre-incubated for 1 hrs followed by LPS stimulation and measured after 24 hrs by western blotting method; type: functional, cell-based; conditions: dose 2.5-10 µM, time 25.0 hrs
[9] = system: RAW264.7; assay: Antiinflammatory activity in mouse RAW264.7 cells assessed as reduction in LPS-induced NF-kappaB phosphorylation at 2.5 to 10 uM pre-incubated for 1 hrs followed by LPS stimulation and measured after 24 hrs by immunofluorescence staining assay; type: functional, cell-based; conditions: dose 2.5-10 µM, time 25.0 hrs
[10] = system: RAW264.7; assay: Antiinflammatory activity in mouse RAW264.7 cells assessed as reduction in LPS-induced ERK phosphorylation at 2.5 to 10 uM pre-incubated for 1 hrs followed by LPS stimulation and measured after 24 hrs by western blotting method; type: functional, cell-based; conditions: dose 2.5-10 µM, time 25.0 hrs, DDE = dose-dependent effect
[11] = system: Mus musculus; assay: Antiinflammatory activity in LPS-induced sepsis in C57BL/6J mouse model assessed as reduction in serum AST level at 14 mg/kg,IG administrated for 72 hrs followed by LPS stimulation and measured after 12 hrs; type: functional, organism-based; conditions: time 84.0 hrs
[12] = system: Mus musculus; assay: Antiinflammatory activity in LPS-induced sepsis in C57BL/6J mouse model assessed as reduction in serum creatinine level at 14 mg/kg,IG administrated for 72 hrs followed by LPS stimulation and measured after 12 hrs; type: functional, organism-based; conditions: time 84.0 hrs
[13] = system: Mus musculus; assay: Antiinflammatory activity in LPS-induced sepsis in C57BL/6J mouse model assessed as reduction in serum HBDH level at 7 mg/kg,IG administrated for 72 hrs followed by LPS stimulation and measured after 12 hrs; type: functional, organism-based; conditions: time 84.0 hrs
[14] = system: Mus musculus; assay: Antiinflammatory activity in LPS-induced sepsis in C57BL/6J mouse model assessed as reduction in morphological changes in heart at 7 mg/kg,IG administrated for 72 hrs followed by LPS stimulation and measured after 12 hrs by H and E staining method; type: functional, organism-based; conditions: time 84.0 hrs
[15] = Toxicity in LPS-induced sepsis in C57BL/6J mouse model assessed as decrease in ratio of heart weight to body weight at 14 mg/kg,IG administrated for 72 hrs followed by LPS stimulation and measured after 12 hrs; type: organism-based; conditions: in vivo, po, 84 h
[16] = Toxicity in LPS-induced sepsis in C57BL/6J mouse model assessed as decrease in ratio of spleen weight to body weight at 7 mg/kg,IG administrated for 72 hrs followed by LPS stimulation and measured after 12 hrs; type: organism-based; conditions: in vivo, po, 84 h
[17] = system: Mus musculus; assay: Antiinflammatory activity in LPS-induced sepsis in C57BL/6J mouse model assessed as reduction in inflammatory cell infiltration in liver at 7 mg/kg,IG administrated for 72 hrs followed by LPS stimulation and measured after 12 hrs by H and E staining method; type: functional, organism-based; conditions: time 84.0 hrs
[18] = Toxicity in LPS-induced sepsis in C57BL/6J mouse model assessed as decrease in ratio of heart weight to body weight at 7 mg/kg,IG administrated for 72 hrs followed by LPS stimulation and measured after 12 hrs; type: organism-based; conditions: in vivo, po, 84 h
[19] = system: Mus musculus; assay: Antiinflammatory activity in LPS-induced sepsis in C57BL/6J mouse model assessed as reduction in serum LDH level at 14 mg/kg,IG administrated for 72 hrs followed by LPS stimulation and measured after 12 hrs; type: functional, organism-based; conditions: time 84.0 hrs
[20] = system: Mus musculus; assay: Antiinflammatory activity in LPS-induced sepsis in C57BL/6J mouse model assessed as reduction in morphological changes in kidney at 7 mg/kg,IG administrated for 72 hrs followed by LPS stimulation and measured after 12 hrs by H and E staining method; type: functional, organism-based; conditions: time 84.0 hrs
[21] = system: Mus musculus; assay: Antiinflammatory activity in LPS-induced sepsis in C57BL/6J mouse model assessed as reduction in morphological changes in kidney at 14 mg/kg,IG administrated for 72 hrs followed by LPS stimulation and measured after 12 hrs by H and E staining method; type: functional, organism-based; conditions: time 84.0 hrs
[22] = system: RAW264.7; assay: Antiinflammatory activity in mouse RAW264.7 cells assessed as reduction in LPS-induced JNK phosphorylation at 2.5 to 10 uM pre-incubated for 1 hrs followed by LPS stimulation and measured after 24 hrs by western blotting method; type: functional, cell-based; conditions: dose 2.5-10 µM, time 25.0 hrs, DDE = dose-dependent effect
[23] = system: Mus musculus; assay: Antiinflammatory activity in LPS-induced sepsis in C57BL/6J mouse model assessed as reduction in serum AST level at 7 mg/kg,IG administrated for 72 hrs followed by LPS stimulation and measured after 12 hrs; type: functional, organism-based; conditions: time 84.0 hrs
[24] = system: Mus musculus; assay: Antiinflammatory activity in LPS-induced sepsis in C57BL/6J mouse model assessed as reduction in inflammatory cell infiltration in liver at 14 mg/kg,IG administrated for 72 hrs followed by LPS stimulation and measured after 12 hrs by H and E staining method; type: functional, organism-based; conditions: time 84.0 hrs
[25] = system: Mus musculus; assay: Antiinflammatory activity in LPS-induced sepsis in C57BL/6J mouse model assessed as reduction in morphological changes in spleen at 7 mg/kg,IG administrated for 72 hrs followed by LPS stimulation and measured after 12 hrs by H and E staining method; type: functional, organism-based; conditions: time 84.0 hrs
[26] = system: Mus musculus; assay: Antiinflammatory activity in LPS-induced sepsis in C57BL/6J mouse model assessed as reduction in serum Urea nitrogen level at 14 mg/kg,IG administrated for 72 hrs followed by LPS stimulation and measured after 12 hrs; type: functional, organism-based; conditions: time 84.0 hrs
[27] = system: Mus musculus; assay: Antiinflammatory activity in LPS-induced sepsis in C57BL/6J mouse model assessed as reduction in morphological changes in spleen at 14 mg/kg,IG administrated for 72 hrs followed by LPS stimulation and measured after 12 hrs by H and E staining method; type: functional, organism-based; conditions: time 84.0 hrs
[28] = Toxicity in LPS-induced sepsis in C57BL/6J mouse model assessed as decrease in ratio of kidney weight to body weight at 14 mg/kg,IG administrated for 72 hrs followed by LPS stimulation and measured after 12 hrs; type: organism-based; conditions: in vivo, po, 84 h
[29] = Toxicity in LPS-induced sepsis in C57BL/6J mouse model assessed as decrease in ratio of kidney weight to body weight at 7 mg/kg,IG administrated for 72 hrs followed by LPS stimulation and measured after 12 hrs; type: organism-based; conditions: in vivo, po, 84 h
[30] = system: Mus musculus; assay: Antiinflammatory activity in LPS-induced sepsis in C57BL/6J mouse model assessed as reduction in serum HBDH level at 14 mg/kg,IG administrated for 72 hrs followed by LPS stimulation and measured after 12 hrs; type: functional, organism-based; conditions: time 84.0 hrs
[31] = system: Mus musculus; assay: Antiinflammatory activity in LPS-induced sepsis in C57BL/6J mouse model assessed as reduction in serum LDH level at 7 mg/kg,IG administrated for 72 hrs followed by LPS stimulation and measured after 12 hrs; type: functional, organism-based; conditions: time 84.0 hrs
[32] = system: Mus musculus; assay: Antiinflammatory activity in LPS-induced sepsis in C57BL/6J mouse model assessed as reduction in serum Urea nitrogen level at 7 mg/kg,IG administrated for 72 hrs followed by LPS stimulation and measured after 12 hrs; type: functional, organism-based; conditions: time 84.0 hrs
[33] = system: RAW264.7; assay: Antiinflammatory activity in mouse RAW264.7 cells assessed as inhibition of LPS-induced NO production at 2.5 to 10 uM pre-incubated for 1 hrs followed by LPS stimulation and measured after 24 hrs; type: functional, cell-based; conditions: dose 2.5-10 µM, time 25.0 hrs, DDE = dose-dependent effect
[34] = system: Mus musculus; assay: Antiinflammatory activity in LPS-induced sepsis in C57BL/6J mouse model assessed as reduction in morphological changes in heart at 14 mg/kg,IG administrated for 72 hrs followed by LPS stimulation and measured after 12 hrs by H and E staining method; type: functional, organism-based; conditions: time 84.0 hrs
[35] = system: RAW264.7; assay: Antiinflammatory activity in mouse RAW264.7 cells assessed as reduction in LPS-induced iNOS protein expression at 2.5 to 10 uM pre-incubated for 1 hrs followed by LPS stimulation and measured after 24 hrs by western blotting method; type: functional, cell-based; conditions: dose 2.5-10 µM, time 25.0 hrs

COc1ccc(C2=NN(c3nc(C)cs3)C(c3ccc(C)cc3)C2)cc1 (centres undefined)
inhibition [1]: Active

Cc1csc(N2N=C(c3ccc(F)cc3)CC2c2ccc(Br)cc2)n1 (centres undefined)
inhibition [1]: Active

Cc1csc(N2N=C(c3ccccc3Br)CC2c2ccc(Br)cc2)n1 (centres undefined)
inhibition [1]: Active

COc1ccccc1C1=NN(c2nc(C)cs2)C(c2ccc(Br)cc2)C1 (centres undefined)
inhibition [1]: Active

COc1ccccc1C1=NN(c2nc(C)cs2)C(c2ccc(C)cc2)C1 (centres undefined)
inhibition [1]: Active

COc1ccccc1C1=NN(c2nc(C)cs2)C(c2cc(OC)c(OC)c(OC)c2)C1 (centres undefined)
inhibition [1]: Active

Cc1ccc(C2CC(c3ccccc3Br)=NN2c2nc(C)cs2)cc1 (centres undefined)
inhibition [1]: Active

COc1ccccc1C1=NN(c2nc(C)cs2)C(c2ccccc2C)C1 (centres undefined)
Activity [2]: Non-Toxic | Activity [3]: Dde | Activity [4]: Dde | Activity [5]: Dde | inhibition [6]: Active | Activity [7]: Active | Activity [8]: Active | Activity [9]: Active | Activity [10]: Dde | Activity [11]: Active | Activity [12]: Active | Activity [13]: Active | inhibition [1]: Active | Activity [14]: Active | Activity [15]: Non-Toxic | Activity [16]: Non-Toxic | Activity [17]: Active | Activity [18]: Non-Toxic | Activity [19]: Active | Activity [20]: Active | Activity [21]: Active | Activity [22]: Dde | Activity [23]: Active | Activity [24]: Active | Activity [25]: Active | Activity [26]: Active | Activity [27]: Active | Activity [28]: Non-Toxic | Activity [29]: Non-Toxic | Activity [30]: Active | Activity [31]: Active | Activity [32]: Active | Activity [33]: Dde | Activity [34]: Active | Activity [35]: Active

COc1ccc(C2=NN(c3nc(C)cs3)C(c3ccc(Br)cc3)C2)cc1 (centres undefined)
inhibition [1]: Active

COc1ccc(C2=NN(c3nc(C)cs3)C(c3cc(OC)c(OC)c(OC)c3)C2)cc1 (centres undefined)
inhibition [1]: Active
